Laboratory results as given in patent publication US20090042820A1, “Tubulin Binding Anti Cancer Agents And Prodrugs Thereof” (Threshold Pharmaceuticals, Inc., priority 2004, published 2009).
Like-named read-outs stand apart in the source and are kept apart here.

Columns and labels:
[1] = tested on: MES-SA/DX5; assay: Alamar Blue antiproliferation assay, MES-SA/DX5; assay type: cell-based; conditions: MES-SA/DX5, 3 Day
[2] = tested on: MES-SA; assay: Alamar Blue antiproliferation assay, MES-SA; assay type: cell-based; conditions: 3 Day
[3] = tested on: cancer cell; assay: Cancer cell antiproliferation assay (cell line not stated); assay type: cell-based; conditions: summary statement; read-out: GI50 or IC50 in a cancer cell antiproliferation assay
Experimental: In one aspect, the present invention provides a compound of formula (I-VII) having a GI50, GI90, IC50, or IC50 of about 0.001 to about 1000 nM, about 0.01 to about 100 nm, about 0.1 to about 50 nM, and about 1 to about 10 nM in a cancer cell antiproliferation assay. In one embodiment, the present invention provides a compound of formula (I) having a GI50 or IC50 of about 0.01 to about 100 nm, about 0.1 to about 50 nm, and about 1 to about 10 nm in a cancer cell antiproliferation assay. In various embodiments, said antiproliferation assays employ cancer cell including but not limited to gastric, colon, breast, and non-small cell lung cancer. In various embodiments, the […] cancer cell used is MESSA or doxorubicin resistant MESSA/DX5 cell; the colon cancer cell is HT29 cell; the breast cancer cell is T47D cell; and the non-small cell lung cancer cell is H460 cell.
(§1) To determine the effect of the compounds of the present invention on cell proliferation, the antiproliferative activity of these compounds was tested in a multi-well Alamar Blue based assay (at 2 h and 3 days). Cell growth in the presence and absence of the test compound as tabulated in Table 1 was compared, as measured by a fluorescence plate reader at excitation 550 nm and emission 590 nm (see Biosource International Inc., Tech Application Notes, Use of Alamar Blue in the measurement of Cell Viability and Toxicity, Determining IC50). H460 cells (ATCC HTB-177 ([…]), 4,000 cells/well/200 μl) and LNCap cells (ATCC CRL-1740, 6,000 cells/well/200 μl) were seeded in a 96 well plate in RPMI medium (Invitrogen Corporation, Carlsbad, Calif.). After 24 hours, these plates were divided into 3 groups—Control group, 2 h treatment group and 3 day treatment group.
(§2) In the 2 h treatment group, after 2 h the cells were rinsed to remove the test compound and incubated for 3 days, followed by staining with AlamarBlue. The cells in the 3-day treatment group were incubated for 3 days, followed by staining with AlamarBlue. In the Control group, AlamarBlue was added to the plate at (i) day 0 and (ii) day 3 and measured to establish the control reading. In all the groups, the capacity of the cells to proliferate was measured 6 hours after addition of AlamarBlue by a fluorescence plate reader at excitation 550 nm and emission 590 nm.

[4] = tested on: HT29; assay: Alamar Blue antiproliferation assay, HT29; assay type: cell-based; conditions: HT29, 3 Day
[5] = tested on: H460 cells; assay: Alamar Blue antiproliferation assay, H460 cell line; assay type: cell-based, human
Experimental: as §1, §2

[6] = tested on: tubulin; assay: Tubulin polymerization inhibition (cell free tubulin fluorescence); assay type: biochemical; conditions: compared to untreated tubulin, read-out: IC50 (μM), concentration that reduced tubulin fluorescence by 50%
Experimental: A sample of cell free tubulin polymerizes and the sample's fluorescence emission increases. Inhibition of tubulin polymerization by a tubulin binding compounds of the present invention was measured by the dose dependence of cell free tubulin fluorescence.

[7] = tested on: H460 cells; assay: Cell cycle analysis; assay type: cell-based, human; conditions: 24 h
Experimental: H460 cells (2×10^5 cells/ml/well) were seeded in a 24 well plate. The culture media were removed after 24 h, the cells were trypsinized and centrifuged. […] The cells were centrifuged and the supernatant was discarded. The cell cycle staining reagent (Guava Technologies, Hayward, Calif., USA, 200 μl) was added to each well. The cells were shielded from light and incubated at room temperature for 30 min.

[8] = tested on: T47D; assay: Alamar Blue antiproliferation assay, T47D; assay type: cell-based; conditions: 3 Day
[9] = Metabolic stability in mouse liver microsomes; assay type: in vitro ADME; conditions: 5 μM, 1 mg/mL protein, NADPH, 37° C.
Experimental: An in vitro assessment of metabolic stability of compounds was performed using commercially available mouse liver microsomes (MLM) containing cytochrome P450 enzymes (Cedra Corp, Austin, Tex.). A solutions (5 μM) of a compound and microsomes (1 mg/mL protein) was prepared. P450 enzymatic reactions were initiated by adding an NADPH solution. Enzymatic reactions were carried out in a thermostated shaking water bath kept at 37° C. Fifty μl of the reaction mixture was withdrawn immediately and 30 minutes after the addition of the NADPH solution and the proteins were precipitated with acetonitrile. The clear supernatant was analyzed by reversed phase LC-MS/MS (Applied Biosystems API-3000 with Hypersil-BDS C18 column and gradient elution), with internal standard area ratio quantification for the amount the compound remaining as shown in table 4.

[10] = tested on: H460 xenograft; assay: H460 xenograft mouse model; assay type: in vivo; conditions: day 21; taxol alone 10 mg/kg daily; treatment began at 150 mm^3 tumor volume
Experimental: Female CB17/SCID mice (purchased from Taconic, Oxnard, Calif.), 7-8 weeks of age, were allowed to acclimatize for at least three days, and handled under pathogen-free conditions. Human non-small cell lung cancer cell line […] was obtained from the American Type Culture Collection. The cell lines were cultured in RPMI 1640 media supplemented with 10% fetal bovine serum. Cells were maintained in a 37° C. incubator with 5% CO2. The H460 cells were harvested from culture and inoculated at 1×10^6 cells/animal in the […] subcutaneous space. […] Taxol was administered approximately 2-3 hours before that of compound 30.
The body weight of each mouse was recorded twice per week (FIG. 1). […] One animal in the treatment group was found dead on day 18, and two were found dead on day 22 in the combination group.
FIG. 2 graphically illustrates the mean tumor volume for each treatment group. Growth of each xenograft was monitored by externally measuring tumors in two dimensions using a digital caliper twice per week. Tumor volume (V) was determined by the following equation: V=(L×W^2)/2, where L is the length and W is the width of a xenograft. Tumor volumes were measured twice weekly. On day 11, the Treated/Control (T/C) ratio was 65% and 52% in the treatment and combination groups, respectively. At the final measurement (day 22), the T/C ratio for the treatment and combination groups respectively were 43% and 19%.

[11] = Homo sapiens, NCI-H460, 2 h treatment, then 3 days incubation, read-out: GI50 (nM) 2 Hour
[12] = Homo sapiens, NCI-H460, 72 h, 3 day treatment, read-out: GI50 (nM) 3 Days
[13] = 3 day treatment, read-out: GI50 (nM) 3 Days

COc1cc(C(=O)c2n[nH]c3c(C#CC(=O)O)c(OC)ccc23)cc(OC)c1OC [Compound 37]
GI50 ([1]; Homo sapiens, 72 h): 3.5 nM | GI50 ([2]; Homo sapiens, 72 h): 3.2 nM | IC50 [3]: 1 to 50 nM | GI50 ([4]; Homo sapiens, HT-29, 72 h): 5 nM | GI50 [5, 11]: 501 nM | GI50 [5, 12]: 3.2 nM

COc1cc(C(=O)c2n[nH]c3c(Br)c(OC)ccc23)cc(OC)c1OC [Compound 39]
GI50 ([1]; Homo sapiens, 72 h): 10 nM | GI50 ([2]; Homo sapiens, 72 h): 2.5 nM | IC50 [3]: 1 to 50 nM | IC50 [6]: 7.9 µM | GI50 ([4]; Homo sapiens, HT-29, 72 h): 12.6 nM | % G2/M ([7]; H460, 0.4 nM): 28% | % Go/G1 ([7]; H460, 0.4 nM): 50% | % S ([7]; H460, 0.4 nM): 15% | % G2/M ([7]; H460, 1.2 nM): 31% | % Go/G1 ([7]; H460, 1.2 nM): 47% | % S ([7]; H460, 1.2 nM): 14% | % G2/M ([7]; H460, 3.7 nM): 32% | % Go/G1 ([7]; H460, 3.7 nM): 45% | % S ([7]; H460, 3.7 nM): 12% | % G2/M ([7]; H460, 11.1 nM): 29% | % Go/G1 ([7]; H460, 11.1 nM): 47% | % S ([7]; H460, 11.1 nM): 14% | % G2/M ([7]; H460, 33.3 nM): 60% | % Go/G1 ([7]; H460, 33.3 nM): 18% | % S ([7]; H460, 33.3 nM): 13% | GI50 [5, 12]: 15.8 nM | GI50 ([8]; Homo sapiens, 72 h): 200 nM

COc1cc(C(=O)c2n[nH]c3c(/C=C/CO)c(OC)ccc23)cc(OC)c1OC [Compound 54]
GI50 ([1]; Homo sapiens, 72 h): 6.3 nM | GI50 ([2]; Homo sapiens, 72 h): 3.2 nM | IC50 [3]: 1 to 50 nM | GI50 ([4]; Homo sapiens, HT-29, 72 h): 5 nM | GI50 [5, 11]: 501 nM | GI50 [5, 12]: 2 nM | GI50 ([8]; Homo sapiens, 72 h): 20 nM

COc1cc(C(=O)c2n[nH]c3c(CCCO)c(OC)ccc23)cc(OC)c1OC [Compound 55]
GI50 ([1]; Homo sapiens, 72 h): 15.8 nM | GI50 ([2]; Homo sapiens, 72 h): 12 nM | IC50 [3]: 1 to 50 nM | GI50 ([4]; Homo sapiens, HT-29, 72 h): 10 nM | GI50 [5, 11]: > 10000 nM | GI50 [5, 12]: 7.9 nM | GI50 ([8]; Homo sapiens, 72 h): 25 nM

COc1cc(C(=O)c2n[nH]c3c(C#CCOC(=O)OCc4ccc([N+](=O)[O-])o4)c(OC)ccc23)cc(OC)c1OC [Compound 57]
Metabolic stability (MLM, % remaining at 30 min) [9]: 21 ± 4% | GI50 [5, 11]: 100 nM | GI50 [5, 12]: 10 nM

COc1cc(C(=O)c2n[nH]c3c(C#N)c(OC)ccc23)cc(OC)c1OC [Compound 58]
Metabolic stability (MLM, % remaining at 30 min) [9]: 28 ± 6% | GI50 [5, 11]: > 10000 nM | GI50 [5, 12]: 15.8 nM

COc1cc(C(=O)c2n[nH]c3c(C(N)=O)c(OC)ccc23)cc(OC)c1OC [Compound 60]
Metabolic stability (MLM, % remaining at 30 min) [9]: 94 ± 4% | GI50 [5, 11]: > 1000 nM | GI50 [5, 12]: 25.1 nM

COc1ccc2c(C(=O)c3cc(OC)c(OC)c(OC)c3)nn(CCO)c2c1 [Compound 64]
GI50 [5, 11]: > 1000 nM | GI50 [5, 12]: 630 nM

COc1cc(C(=O)c2n[nH]c3c(CCC(C)(C)O)c(OC)ccc23)cc(OC)c1OC [Compound 65]
GI50 [5, 11]: > 1000 nM | GI50 [5, 12]: > 1000 nM

COc1cc(C(=O)c2n[nH]c3c(C#CC(C)O)c(OC)ccc23)cc(OC)c1OC (stereo not drawn) [Compound 66]
Metabolic stability (MLM, % remaining at 30 min) [9]: 88 ± 11% | GI50 ([1]; Homo sapiens, 72 h): 10 nM | GI50 ([2]; Homo sapiens, 72 h): 15.8 nM | IC50 [3]: 1 to 50 nM | GI50 ([4]; Homo sapiens, HT-29, 72 h): 12.6 nM | GI50 [5, 12]: 10 nM | GI50 ([8]; Homo sapiens, 72 h): 6.3 nM

COc1cc(C(=O)c2n[nH]c3c(C#Cc4ccccn4)c(OC)ccc23)cc(OC)c1OC [Compound 68]
Metabolic stability (MLM, % remaining at 30 min) [9]: 17 ± 4% | GI50 [1]: 1.9 nM | GI50 [2]: 1.6 nM | GI50 [4]: 1.6 nM | GI50 [5, 13]: 1.4 nM | GI50 [8]: 1.6 nM

COc1cc(C(=O)c2n[nH]c3c(C#Cc4cccc(O)c4)c(OC)ccc23)cc(OC)c1OC [Compound 69]
GI50 [5, 12]: 1000 nM

COc1cc(C(=O)c2n[nH]c3c(C#C[C@@H](C)O)c(OC)ccc23)cc(OC)c1OC [Compound 71]
GI50 [5, 13]: 12.5 nM

C#Cc1c(OC)ccc2c(C(=O)c3cc(OC)c(OC)c(OC)c3)nn(CC(N)=O)c12 [Compound 73]
GI50 [5, 12]: 630 nM

C#Cc1c(OC)ccc2c(C(=O)c3cc(OC)c(OC)c(OC)c3)nn(CC(=O)O)c12 [Compound 74]
GI50 [5, 12]: > 1000 nM

C#Cc1c(OC)ccc2c(C(=O)c3cc(OC)c(OC)c(OC)c3)nn(C(=O)OCc3ccc([N+](=O)[O-])o3)c12 [Compound 75]
GI50 [5, 12]: > 1000 nM

COc1cc(C(=O)c2n[nH]c3c(C#CC=O)c(OC)ccc23)cc(OC)c1OC [Compound 76]
GI50 [5, 12]: 79.4 nM

COc1cc2[nH]nc(C(=O)c3cc(OC)c(OC)c(OC)c3)c2cc1OC [Compound 77]
GI50 [5, 12]: > 1000 nM

C#Cc1c(OC)ccc2c(C(=O)c3cc(OC)c(OC)c(OC)c3)nn([C@@H]3OC(CO)[C@@H](O)[C@H](O)C3O)c12 (stereo partly drawn) [Compound 80]
GI50 [5, 12]: > 1000 nM

COc1ccc2c(C(=O)c3cc(OC)c(OC)c(OC)c3)n(CO)nc2c1 [Compound 81]
GI50 [5, 12]: > 1000 nM

CC(=O)O[C@H]1C(=O)[C@@]2(C)[C@H]([C@H](OC(=O)c3ccccc3)[C@]3(O)C[C@H](OC(=O)[C@H](O)[C@@H](NC(=O)c4ccccc4)c4ccccc4)C(C)=C1C3(C)C)[C@]1(OC(C)=O)CO[C@@H]1C[C@@H]2O [taxol, paclitaxel, reference compound]
TIC, tumor volume [10]: 56%
